Laboratory results as given in US6352989B1, “Nitrogenous heterocyclic derivatives and medicine thereof” (Eisai Co., Ltd., priority 1998, dated 2002).
pIC50: −log10 of the molar value.

Legend:
[1] = target: PDE4D (Homo sapiens, UniProt Q08499); assay: Inhibitory action on PDE4 (homogenate of BHK cells expressing cloned human PDE4D, [3H]-cAMP hydrolysis); assay type: biochemical; settings: average in triplicate measurements; 1 μM [3H]-cAMP substrate; read-out: PDE4 Inhibition IC50
Experimental: Inhibitory Action on PDE4: PDE4D was cloned from human placental mRNA by PCR techniques, and cDNA after an alternative spliced site (Mol. Cell. Biol., 13, 6558, 1993) was expressed in BHK cells. Two clones of BHK cells expressing PDE4 activity which was 100 or more times as high as endogenous PDE4 activity were obtained, and one of the clones was cultured in a large amount, and its homogenate was used as an enzyme source of PDE4.
50 mM Tris-HCl (pH 8.0), 0.1 mM EGTA, 0.1 mM MgCl2, 1 μM [^3H]-cGMP (100,000 dpm/tube) or 1 μM [^3H]-cAMP (100,000 dpm/tube) was added to the above homogenate, and 0.2 ml of the mixture was incubated at 30° C. for 10 to 20 minutes in the presence or absence of a test compound. The enzyme reaction was stopped by incubating the mixture at 95° C. for 1.5 minutes, and after cooling on ice, 50 μl nucleotidase (10 units/ml) was added thereto and incubated at 30° C. for 10 minutes. 550 μl of AG1-X2 resin slurry (H2O:resin=2:1) was added to the reaction mixture, then left at 4° C. for 10 minutes and centrifuged (10,000 rpm, 2.5 minutes, 4° C.), and 450 μl of the supernatant was measured for radioactivity.
The activity was compared in terms of IC50 (concentration of the compound at which 50% of the enzyme activity is inhibited) IC50 was determined by plotting of the concentration of cAMP as the substrate and the concentration of the compound on logarithmic graph paper. The results shown in Table 1 are the average in triplicate measurements. The test compound was first dissolved in DMSO and then diluted with the above-mentioned buffer for use.

Sequence of PDE4D (Q08499 303-809 limits assumed): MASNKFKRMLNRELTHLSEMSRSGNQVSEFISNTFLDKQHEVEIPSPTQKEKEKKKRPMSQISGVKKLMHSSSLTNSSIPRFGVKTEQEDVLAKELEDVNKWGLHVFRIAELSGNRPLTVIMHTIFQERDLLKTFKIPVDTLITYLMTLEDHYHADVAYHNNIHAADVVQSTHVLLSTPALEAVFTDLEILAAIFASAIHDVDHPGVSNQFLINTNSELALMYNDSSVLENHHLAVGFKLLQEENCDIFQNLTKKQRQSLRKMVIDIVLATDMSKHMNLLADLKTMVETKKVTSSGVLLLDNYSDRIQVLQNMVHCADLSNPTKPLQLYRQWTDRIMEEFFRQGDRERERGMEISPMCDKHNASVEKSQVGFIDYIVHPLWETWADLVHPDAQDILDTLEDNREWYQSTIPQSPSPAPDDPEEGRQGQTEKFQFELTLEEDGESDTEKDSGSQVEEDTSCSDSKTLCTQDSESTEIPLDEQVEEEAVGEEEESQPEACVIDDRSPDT

SMILES	melting point	pIC50 [1]
CNc1nc(-c2cccc(-c3cncc4ccccc34)c2)c2cc(OC)c(OC)cc2n1 [Example 51, 6,7-Dimethoxy-2-methylamino-4-[3-(4-isoquinolyl)phenyl]quinazoline]	181 to 183 °C	8.49
CNc1nc(-c2cccc(NC(=O)c3ccnc(N4CCCC4)c3)c2)c2cc(OC)c(OC)cc2n1 [Example 34]	135 to 137 °C	8.51
CNc1nc(-c2cccc(-c3cncc(SC)c3)c2)c2cc(OC)c(OC)cc2n1 [Example 58, 6,7-Dimethoxy-2-methylamino-4-[3-(5-methylthio-3-pyridyl)phenyl]quinazoline]	184 to 186 °C	8.55
CCOc1cc2nc(NC)nc(-c3cccc(-c4cnc5ccccc5c4)c3)c2cc1OCC [Example 60, 6,7-Diethoxy-2-methylamino-4-[3-(3-quinolyl)phenyl]quinazoline]	157 to 159 °C	9.66
CNc1nc(-c2cccc(C#Cc3ccccc3)c2)c2cc(OC)c(OC)cc2n1 [Example 65, 6,7-Dimethoxy-2-methylamino-4-[3-(2-phenylethynyl)phenyl]quinazoline]	102 to 104 °C	8.60
CNc1nc(-c2cccc(N3Cc4ccccc4C3=O)c2)c2cc(OC)c(OC)cc2n1 [Example 45, 6,7-Dimethoxy-4-[3-(1-oxo-2-isoindolynyl)phenyl]-2-methylaminoquinazoline]	230 to 232 °C	9.14
CNc1nc(-c2cccc(NC(=O)c3ccc(N(C)C)nc3)c2)c2cc(OC)c(OC)cc2n1 [Example 30, 6,7-Dimethoxy-4-[3-(6-dimethylaminonicotinoylamino)phenyl]-2-methylaminoquinazoline]	149 to 151 °C	8.59
CNc1nc(-c2cccc(-c3cccc(SC)c3)c2)c2cc(OC)c(OC)cc2n1 [Example 54, 6,7-Dimethoxy-2-methylamino-4-(3′-methylthio-3-biphenylyl)quinazoline]	195 to 197 °C	8.77
CNc1nc(-c2cccc(N3Cc4ccccc4C3)c2)c2cc(OC)c(OC)cc2n1 [Example 44, 6,7-Dimethoxy-4-[3-(2-isoindolynyl)phenyl]-2-methylaminoquinazoline]	194 to 196 °C	8.60
CNc1nc(-c2cccc(-c3cncc(-c4ccccc4)c3)c2)c2cc(OC)c(OC)cc2n1 [Example 63, 6,7-Dimethoxy-2-methylamino-4-[3-(5-phenyl-3-pyridyl)phenyl]quinazoline]	200 to 202 °C	9.22
CNc1nc(-c2cccc(NC(=O)c3ccc(O)cc3)c2)c2cc(OC)c(OC)cc2n1 [Example 21, 6,7-Dimethoxy-4-[3-(4-hydroxybenzoylamino)phenyl]-2-methylaminoquinazoline]	178 to 180 °C	8.66
CNc1nc(-c2cccc(-c3cnc4c(C)cccc4c3)c2)c2cc(OC)c(OC)cc2n1 [Example 64, 6,7-Dimethoxy-4-[3-(8-methyl-3-quinolyl)phenyl]-2-methylaminoquinazoline]	188 to 190 °C	9.72
CNc1nc(-c2cccc(-c3ccc([S+](C)[O-])cc3)c2)c2cc(OC)c(OC)cc2n1 (stereo not shown) [Example 53, 6,7-Dimethoxy-2-methylamino-4-(4′-methylsulfinyl-3-biphenylyl)quinazoline]	153 to 155 °C	9.20
CNc1nc(-c2cccc(NC(=O)c3ccc(OC)c(OC4CCCC4)c3)c2)c2cc(OC)c(OC)cc2n1 [Example 17, 4-[3-(3-Cyclopentyloxy-4-methoxybenzoylamino)phenyl]-6,7-dimethoxy-2-methylaminoquinazoline]	129 to 131 °C	8.38
CNc1nc(-c2cccc(NC(=O)c3ccc(N4CCCC4)nc3)c2)c2cc(OC)c(OC)cc2n1 [Example 31, 6,7-Dimethoxy-2-methylamino-4-[3-(6-pyrrolidinonicotinoylamino)phenyl]quinazoline]	239 to 241 °C	8.60
CNc1nc(-c2cccc(CCc3ccccc3)c2)c2cc(OC)c(OC)cc2n1 [Example 66, 6,7-Dimethoxy-2-methylamino-4-[3-(2-phenylethyl)phenyl]quinazoline]	95 to 97 °C	

SMILES	melting point	pIC50 [1]
CNc1nc(-c2cccc(NC(=O)Nc3ccccc3)c2)c2cc(OC)c(OC)cc2n1 [Example 36, 6,7-Dimethoxy-2-methylamino-4-[3-(3-phenylureido)phenyl]quinazoline]	218 to 220 °C	
CNc1nc(-c2cccc(NC(=O)c3ccc([S+](C)[O-])cc3)c2)c2cc(OC)c(OC)cc2n1 (stereo not shown) [Example 27, 6,7-Dimethoxy-2-methylamino-4-[3-(4-methylsulfinylbenzoylamino)phenyl]quinazoline]	246 to 248 °C	
CNc1nc(-c2cccc(-c3cccc(-c4ccccc4)c3)c2)c2cc(OC)c(OC)cc2n1 [Example 56, 6,7-Dimethoxy-2-methylamino-4-(3′-phenyl-3-biphenylyl)quinazoline]	193 to 195 °C	8.92
CNc1nc(-c2cccc(NC(=O)c3cccc(O)c3)c2)c2cc(OC)c(OC)cc2n1 [Example 23, 6,7-Dimethoxy-4-[-(3-hydroxybenzoylamino)phenyl]-2-methylaminoquinazoline]	265 to 267 °C	
CNc1nc(-c2cccc(/C=C/c3ccccc3)c2)c2cc(OC)c(OC)cc2n1 [Example 69, 6,7-Dimethoxy-2-methylamino-4-[3-(2-phenylethenyl)phenyl]quinazoline]	110 to 112 °C	
CNc1nc(-c2cccc(NC(=O)c3ccc(Cl)nc3)c2)c2cc(OC)c(OC)cc2n1 [Example 29, 4-[3-(6-Choloronicotinoylamino)phenyl]-6,7-dimethoxy-2-methylaminoquinazoline]	157 to 159 °C	
CNc1nc(-c2cccc(NC(=O)c3cccc(Cl)c3)c2)c2cc(OC)c(OC)cc2n1 [Example 9, 4-[3-(3-Chlorobenzoylamino)phenyl]-6,7-dimethoxy-2-methylaminoquinazoline]	124 to 126 °C	
CNc1nc(-c2cccc(NC(=O)c3ccc(S(C)(=O)=O)cc3)c2)c2cc(OC)c(OC)cc2n1 [Example 28, 6,7-Dimethoxy-2-methylamino-4-[3-(4-methylsulfonylbenzoylamino)phenyl]quinazoline]	277 to 279 °C	
CCOc1cc2nc(NC)nc(-c3cccc(-c4cncc(SC)c4)c3)c2cc1OCC [Example 61, 6,7-Diethoxy-2-methylamino-4-[3-(methylthio-3-pyridyl)phenyl]quinazoline]	105 to 107 °C	9.22
CNc1nc(-c2cccc(NC(=O)c3ccnc(Cl)c3)c2)c2cc(OC)c(OC)cc2n1 [Example 33, 4-[3-(2-Chloroisonicotinoylamino)phenyl]-6,7-dimethoxy-2-methylaminoquinazoline]	151 to 153 °C	
CNc1nc(-c2cccc(-c3ccc(SC)cc3)c2)c2cc(OC)c(OC)cc2n1 [Example 52, 6,7-Dimethoxy-2-methylamino-4-(4′-methylthio-3-biphenylyl)quinazoline]	140 to 142 °C	8.74
CNc1nc(-c2cccc(-c3cncc(OC)c3)c2)c2cc(OC)c(OC)cc2n1 [Example 57, 6,7-Dimethoxy-4-[3-(5-methoxy-3-pyridyl)phenyl]-2-methylaminoquinazoline]	225 to 227 °C	
CNc1nc(-c2cccc(NC(=O)Cc3ccccc3)c2)c2cc(OC)c(OC)cc2n1 [Example 6, 6,7-Dimethoxy-2-methylamino 4-[3-(phenylacetylamino)phenyl]quinazoline]	175 to 177 °C	
CNc1nc(-c2cncc(-c3ccccc3)c2)c2cc(OC)c(OC)cc2n1 [Example 75, 6,7-Dimethoxy-2-methylamino-4-(5-phenyl-3-pyridyl)quinazoline]	177 to 179 °C	
CNc1nc(-c2cccc(NC(=O)c3ccccc3Cl)c2)c2cc(OC)c(OC)cc2n1 [Example 8, 4-[3-(2-Chlorobenzoylamino)phenyl]-6,7-dimethoxy-2-methylaminoquinazoline]	197 to 199 °C	
